# Test results: patent publication US20260285850A1, “SUBSTITUTED OXAZOLIDINONES AND IMIDAZOLINONES AS HERBICIDES” (FMC CORPORATION, priority 2023, published 2026)
# Columns and labels:
# Format in all cases: in vivo
# [1] = tested on: barnyardgrass (Echinochloa crus-galli); test: Test A preemergence soil spray, visual injury rating 0-100; settings: 10 days
# Summary of the method: (§1)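 Rating: visual, day 10, untreated plants as reference, 0 no effect to 100 full control. Plants were in loam-sand and were treated either preemergence via directed soil spray or postemergence at the one- to two-leaf stage.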
# [2] = tested on: blackgrass (Alopecurus myosuroides); test: as above; settings: 10 days
# Summary of the method: as §1
# corn (Zea mays) [3] = test: as above; settings: 10 days
# Summary of the method: as §1
# [4] = tested on: green foxtail (Setaria viridis); test: as above; settings: 10 days
# Summary of the method: as §1
# kochia (Bassia scoparia) [5] = test: as above; settings: 10 days
# Summary of the method: as §1
# [6] = tested on: oat, wild (wild oat, Avena fatua); test: as above; settings: 10 days
# Summary of the method: as §1
# [7] = tested on: palmer (palmer amaranth, palmer pigweed, Amaranthus palmeri); test: as above; settings: 10 days
# Summary of the method: as §1
# [8] = tested on: ragweed (common ragweed, Ambrosia artemisiifolia); test: as above; settings: 10 days
# Summary of the method: as §1
# [9] = tested on: ryegrass, Italian (italian ryegrass, Lolium multiflorum); test: as above; settings: 10 days
# Summary of the method: as §1
# soybean (Glycine max) [10] = test: as above; settings: 10 days
# Summary of the method: as §1
# [11] = tested on: wheat (Triticum aestivum); test: as above; settings: 10 days
# Summary of the method: as §1
# [12] = tested on: barnyardgrass (Echinochloa crus-galli); test: Test A postemergence application, visual injury rating 0-100
# Summary of the method: as §1
# [13] = tested on: blackgrass (Alopecurus myosuroides); test: as above
# Summary of the method: as §1
# corn (Zea mays) [14] = test: as above
# Summary of the method: as §1
# [15] = tested on: galium (catchweed bedstraw, Galium aparine); test: as above
# Summary of the method: as §1
# [16] = tested on: green foxtail (Setaria viridis); test: as above
# Summary of the method: as §1
# [17] = tested on: horseweed (Erigeron canadensis); test: as above
# Summary of the method: as §1
# kochia (Bassia scoparia) [18] = test: as above
# Summary of the method: as §1
# [19] = tested on: oat, wild (wild oat, Avena fatua); test: as above
# Summary of the method: as §1
# [20] = tested on: palmer (palmer amaranth, palmer pigweed, Amaranthus palmeri); test: as above
# Summary of the method: as §1
# [21] = tested on: ragweed (common ragweed, Ambrosia artemisiifolia); test: as above
# Summary of the method: as §1
# [22] = tested on: ryegrass, Italian (italian ryegrass, Lolium multiflorum); test: as above
# Summary of the method: as §1
# soybean (Glycine max) [23] = test: as above
# Summary of the method: as §1
# [24] = tested on: wheat (Triticum aestivum); test: as above
# Summary of the method: as §1
# [25] = tested on: barnyardgrass (Echinochloa crusgalli); test: Test B flooded paddy test, visual plant response rating 0-100; settings: 250 g ai/ha, Flood, applied to paddy water, evaluated after 13 days
# Summary of the method: (§2)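 Visual evaluation after 13 days. Water-applied treatment, 3 cm flood depth held constant, plants at 2-leaf stage at treatment.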
# [26] = tested on: ducksalad (Heteranthera limosa); test: as above; settings: 250 g ai/ha, Flood, applied to paddy water, evaluated after 13 days
# Summary of the method: as §2
# rice (Oryza sativa) = test: as above; settings: 250 g ai/ha, Flood, applied to paddy water, evaluated after 13 days
# Summary of the method: as §2
# [27] = tested on: sedge, umbrella (small-flower umbrella sedge, Cyperus difformis); test: as above; settings: 250 g ai/ha, Flood, applied to paddy water, evaluated after 13 days
# Summary of the method: as §2
# [28] = 62 g ai/ha, 0 = no effect, 100 = complete control
# [29] = 62 g ai/ha, postemergence, 10 days, 0 = no effect, 100 = complete control
# [30] = Postemergence, 16 g ai/ha, greenhouse 10 days, 0 no effect, 100 complete control
smiles,measurement,setting,value
CC1(C(=O)NC2CC=C(C(=O)O)C2)CN(c2cc(F)cc(F)c2)C(=O)O1 (stereo not shown) [Compound 94],Barnyardgrass plant response rating,"[1]; 16 g ai/ha, 0 to 100 scale",40
same,Barnyardgrass plant response rating (0-100),[1]; [28],100
same,Blackgrass plant response rating,"[2]; 16 g ai/ha, 0 to 100 scale",30
same,Blackgrass plant response rating (0-100),[2]; [28],60
same,Corn plant response rating,"corn (Zea mays) [3]; 16 g ai/ha, 0 to 100 scale",40
same,Corn plant response rating (0-100),corn (Zea mays) [3]; [28],80
same,"Foxtail, Green plant response rating","[4]; 16 g ai/ha, 0 to 100 scale",10
same,"Foxtail, Green plant response rating (0-100)",[4]; [28],90
same,Kochia plant response rating,"kochia (Bassia scoparia) [5]; 16 g ai/ha, 0 to 100 scale",0
same,Kochia plant response rating (0-100),kochia (Bassia scoparia) [5]; [28],90
same,"Oat, Wild plant response rating","[6]; 16 g ai/ha, 0 to 100 scale",10
same,"Oat, Wild plant response rating (0-100)",[6]; [28],50
same,"Pigweed, Palmer plant response rating","[7]; 16 g ai/ha, 0 to 100 scale",20
same,"Pigweed, Palmer plant response rating (0-100)",[7]; [28],60
same,Ragweed plant response rating,"[8]; 16 g ai/ha, 0 to 100 scale",20
same,Ragweed plant response rating (0-100),[8]; [28],40
same,"Ryegrass, Italian plant response rating","[9]; 16 g ai/ha, 0 to 100 scale",60
same,"Ryegrass, Italian plant response rating (0-100)",[9]; [28],70
same,Soybean plant response rating,"soybean (Glycine max) [10]; 16 g ai/ha, 0 to 100 scale",10
same,Soybean plant response rating (0-100),soybean (Glycine max) [10]; [28],30
same,Wheat plant response rating,"[11]; 16 g ai/ha, 0 to 100 scale",60
same,Wheat plant response rating (0-100),[11]; [28],90
same,Barnyardgrass plant response rating (0-100),[12]; [29],100
same,Barnyardgrass plant response rating (0 to 100 scale),[12]; [30],100
same,Blackgrass plant response rating (0-100),[13]; [29],90
same,Blackgrass plant response rating (0 to 100 scale),[13]; [30],80
same,Corn plant response rating (0-100),corn (Zea mays) [14]; [29],100
same,Corn plant response rating (0 to 100 scale),corn (Zea mays) [14]; [30],100
same,Galium plant response rating (0-100),[15]; [29],90
same,Galium plant response rating (0 to 100 scale),[15]; [30],70
same,"Foxtail, Green plant response rating (0-100)",[16]; [29],90
same,"Foxtail, Green plant response rating (0 to 100 scale)",[16]; [30],60
same,Horseweed plant response rating (0-100),[17]; [29],60
same,Horseweed plant response rating (0 to 100 scale),[17]; [30],20
same,Kochia plant response rating (0-100),kochia (Bassia scoparia) [18]; [29],90
same,Kochia plant response rating (0 to 100 scale),kochia (Bassia scoparia) [18]; [30],80
same,"Oat, Wild plant response rating (0-100)",[19]; [29],90
same,"Oat, Wild plant response rating (0 to 100 scale)",[19]; [30],40
same,"Pigweed, Palmer plant response rating (0-100)",[20]; [29],90
same,"Pigweed, Palmer plant response rating (0 to 100 scale)",[20]; [30],50
same,Ragweed plant response rating (0-100),[21]; [29],50
same,Ragweed plant response rating (0 to 100 scale),[21]; [30],50
same,"Ryegrass, Italian plant response rating (0-100)",[22]; [29],90
same,"Ryegrass, Italian plant response rating (0 to 100 scale)",[22]; [30],70
same,Soybean plant response rating (0-100),soybean (Glycine max) [23]; [29],70
same,Soybean plant response rating (0 to 100 scale),soybean (Glycine max) [23]; [30],60
same,Wheat plant response rating (0-100),[24]; [29],90
same,Wheat plant response rating (0 to 100 scale),[24]; [30],60
same,"Plant response rating, Barnyardgrass (0 to 100 scale, 0 is no effect and 100 is complete control)",[25],95
same,"Plant response rating, Ducksalad (0 to 100 scale, 0 is no effect and 100 is complete control)",[26],95
same,"Plant response rating, Rice (0 to 100 scale, 0 is no effect and 100 is complete control)",rice (Oryza sativa),75
same,"Plant response rating, Sedge, Umbrella (0 to 100 scale, 0 is no effect and 100 is complete control)",[27],95
